From patent publication US20080206219A1, “Novel Indications for Transforming Growth Factor-Beta Regulators” (THE REGENCTS OF THE UNIVERSITY OF CALIFORNIA, priority 2003, published 2008) come the findings set out here.

Format in all cases: in vivo
Experiment [1] deals with control and Collα1(I)r/r mice. As to the kind of experiment: Modified Miles assay: intradermal injection of permeability-inducing agents. Particulars: for Evans blue leakage response after intradermal injection: Collα1(I)r/r mice versus control mice, all concentrations tested; for leakage of Evans blue dye into stroma after intradermal injection: control mice, increasing concentrations. Here is the method: (§1) Evans blue (EB) dye (30 mg/kg in 100 μl PBS; Sigma-Aldrich) was injected into the tail vein of 7- to 8-week-old mice. In some experiments, after 1-min, 30 μl of 5% mustard oil (Phenyl Isothiocyanate, 98%, Sigma-Aldrich) diluted in mineral oil (Sigma-Aldrich) was applied to the dorsal and ventral surfaces of the ear; the application process was repeated 15 minutes later. Isoflurane anesthesized mice were photographed 30 minutes after injection of EB dye. Anesthesized mice were then cardiac perfused, ears removed, blotted dry and weighed. EB dye was extracted from ears in 1 ml of formamide overnight to 48-hrs at 60° C. and measured spectrophotometrically at 610 nm in a SpectraMax 340™ (Molecular Devices). Data are expressed as mean±SEM. Comparisons of the amounts of dye extravasation were evaluated by Mann-Whitney statistical test with p values less than 0.05 considered significant. In some experiments, 5-min prior to the infusion of EB dye, shaved 5-to 7-week old mice were injected (10 μl) intradermally with one of the following agents at the concentrations shown (VEGF120, R&D Systems; VEGF164, Chemicon; histamine, Calbiochem; serotonin, Sigma-Aldrich) and the appearance of a blue spot monitored for 30 minutes at which time mice were euthanized, cardiac perfused, photographed and the area of skin surrounding the site of injection excised (˜5 mm^2), photographed and EB dye extracted as above.
The vascular leakage in control and Collα1(I)^r/r mice following intradermal injection of other agents known to induce vascular leakage, e.g., VEGFA120, VEGFA164 and serotonin (versus vehicle alone), by interacting with distinct cell surface receptors, e.g., VEGF receptor-2 (VEGFR2) and serotonin receptors, respectively (FIG. 3A) were assessed. 5 min prior to the infusion of Evans blue dye, shaved 5-to 7-week old mice were injected (10 μl) intradermally with VEGF120 (R&D Systems) VEGF164 (Chemicon; histamine, Calbiochem) serotonin (Sigma) TIMP-1 (Oncogene Research Products, San Diego Calif.) and the appearance of a blue spot monitored for 30 minutes at which time mice were euthanized, cardiac perfused, photographed and the area of skin surrounding the site of injection excised (˜5 mm^2), photographed and Evans blue dye extracted as above.

Experiment [2] relates to Collα1(I)+/+ and Collα1(I)r/r mice. As to the kind of experiment: Miles assay: Evans blue leakage in ears after mustard oil challenge. Particulars: for Evans blue staining of ears following MO exposure: 5% mustard oil in mineral oil. Here is the method:
as §1, with “above. […]” for “above.”
The vascular physiology in a mouse model of human Sc, e.g., Collα1(I)^r/r mice, was studied to determine whether an altered balance between collagen synthesis, accumulation and/or degradation was a rate-limiting factor for efficient vascular physiology prior to histopathologic appearance of Sc disease. The ears of Collα1(I)^r/r versus littermate control (Collα1(I)^+/+) mice were treated with vehicle alone (mineral oil; FIG. 1A) or mustard oil (MO; 5% in mineral oil: right ear), an inflammatory agent that induces plasma leakage, vasodilation of capillaries and inflammation in the skin (FIG. 1A). Evans blue dye (30 mg/kg in 100 μl PBS; Sigma Chemical Co., St. Louis, Mo., USA) was injected into the tail vein of the mice. After 1 minute, 5% mustard oil (Phenyl Isothiocyanate, 98%, Sigma) diluted in mineral oil (Sigma) was applied to the dorsal and ventral surfaces of the ear with a cotton swab; the application process was repeated 15 minutes later. […] Isoflurane anesthesized mice were photographed 30 minutes after injection of Evans blue dye. Anesthesized mice were then cardiac perfused, ears removed, blotted dry, and weighed. The Evans blue dye was extracted from the ears with 1 ml of formamide overnight at 60° C. and measured spectrophotometrically at 610 nm in a SpectraMax 340™ (Molecular Devices). Data are expressed as mean±SEM. Comparisons of the amounts of dye extravasation were evaluated by the Fisher's t test with p values less than 0.05 considered significant.
Vascular permeability (VP) responses in control and Collα1(I)^r/r mice treated with a broad spectrum synthetic metalloproteinase inhibitor (MPI), e.g., GM6001 were examined. GM6001 (N-[(2R)-2(hydroxyamidocarbonylmethyl)-4-methylpantanoyl]-L-tryptophan ethylamide), a broad, class-specific metalloproteinase inhibitor (Chemicon, Temecula Calif.), was administered daily i.p. at 100 mg/kg body weight as a 20 mg/ml slurry in 4% carboxymethylcellulose in 0.9% PBS daily for 3-days. Controls were treated with a daily injection of 4% carboxymethylcellulose in PBS. The animals were then subject to cutaneous challenge with MO and qualitative and quantitative assessment of Evans blue dye leakage into vascular stroma (FIG. 5A).

Experiment [3] has as its system control and Collα1(I)r/r mice. As to the kind of experiment: Fluorescent angiography of whole mounted ears after mustard oil.
The target of experiment [4] is T1, VEGFR2 (Mus musculus, UniProt P35918).
T1 construct: tissue lysates were subjected to immunoprecipitation with anti-VEGFR2 antibodies; from tissue; host or cells: mouse skin after intradermal VEGF164 or BSA
T1 sequence (P35918 20-1345): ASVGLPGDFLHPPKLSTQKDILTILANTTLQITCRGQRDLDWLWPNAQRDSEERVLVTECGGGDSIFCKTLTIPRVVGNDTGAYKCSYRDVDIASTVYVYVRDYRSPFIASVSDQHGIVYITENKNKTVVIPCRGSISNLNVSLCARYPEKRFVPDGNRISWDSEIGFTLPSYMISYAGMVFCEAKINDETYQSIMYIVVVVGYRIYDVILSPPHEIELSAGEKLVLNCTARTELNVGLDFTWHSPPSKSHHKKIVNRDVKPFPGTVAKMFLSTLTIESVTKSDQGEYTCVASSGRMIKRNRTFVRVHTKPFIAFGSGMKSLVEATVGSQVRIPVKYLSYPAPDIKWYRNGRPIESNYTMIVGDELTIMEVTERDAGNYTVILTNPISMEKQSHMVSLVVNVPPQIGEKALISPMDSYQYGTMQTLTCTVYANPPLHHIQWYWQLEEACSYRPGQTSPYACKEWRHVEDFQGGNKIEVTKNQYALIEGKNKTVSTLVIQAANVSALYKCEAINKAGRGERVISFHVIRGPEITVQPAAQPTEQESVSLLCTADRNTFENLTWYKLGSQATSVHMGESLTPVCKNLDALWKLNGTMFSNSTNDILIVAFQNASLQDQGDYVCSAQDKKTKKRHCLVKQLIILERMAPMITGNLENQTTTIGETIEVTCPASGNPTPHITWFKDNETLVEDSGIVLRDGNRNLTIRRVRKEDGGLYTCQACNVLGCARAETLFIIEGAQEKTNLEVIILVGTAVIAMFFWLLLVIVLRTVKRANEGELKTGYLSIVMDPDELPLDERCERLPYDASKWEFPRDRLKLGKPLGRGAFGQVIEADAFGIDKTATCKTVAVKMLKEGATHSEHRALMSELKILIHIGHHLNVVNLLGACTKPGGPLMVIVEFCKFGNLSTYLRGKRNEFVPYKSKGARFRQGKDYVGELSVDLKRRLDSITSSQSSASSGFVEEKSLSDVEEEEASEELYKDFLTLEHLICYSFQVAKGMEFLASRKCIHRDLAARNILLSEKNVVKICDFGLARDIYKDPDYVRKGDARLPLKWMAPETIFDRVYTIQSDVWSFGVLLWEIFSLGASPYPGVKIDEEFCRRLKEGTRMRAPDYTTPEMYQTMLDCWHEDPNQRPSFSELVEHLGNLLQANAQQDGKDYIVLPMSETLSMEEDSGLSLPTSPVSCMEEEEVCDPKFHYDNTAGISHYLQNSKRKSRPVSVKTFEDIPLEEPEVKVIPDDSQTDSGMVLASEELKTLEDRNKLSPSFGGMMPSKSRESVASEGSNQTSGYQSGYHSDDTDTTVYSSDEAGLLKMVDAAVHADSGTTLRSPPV
As to the kind of experiment: VEGFR2 phosphorylation, IP-western of tissue lysates after intradermal VEGF164. Particulars: control and Collα1(I)r/r mice; VEGF164 10 ng i.d. How it is done:
VEGFR2: Tissue pieces (5 mm^2) from animals were collected from ears or following shaving of back skin or following injection (i.d.) of 10 μl 10 ng VEGF164 or 0.1% BSA in PBS. Tissues were pulverized in liquid N2 followed by lysis in ice-cold buffer containing 20 mM Tris, pH 7.6, 150 mM NaCl, 1 mM EDTA, 50 mM NaF, 1% triton X-100, 0.5% Na-deoxycholate, 0.1% SDS, 2 mM Na2VO4, 10 μg/ml aprotinin, 1 mM phenylmethylsulfonylfluoride and centrifuged at 10,000 rpm for 30-min at 4° C. The supernatants were recentrifuged at 10,000 rpm for 30-min at 4° C. Lysates were then incubated in a slurry of heparin-Sepharose CL-6B (Pharmacia) and incubated overnight rocking at 4C, centrifugation and equilibrated to 150 mM NaCl. Protein was dialyzed against PBS and quantified using the BioRad protein assay system (BioRad). Before immunoprecipitation, BSA was added to the pre-cleared lysates to 0.5%. Equal amounts of protein (1 mg) from lysates were used for immunopreciptations and Western blotting. […]
Following intradermal injection of VEGF164 (10 ng), tissue lysates were subjected to immunoprecipitation with anti-VEGFR2 antibodies, followed by SDS-PAGE electrophoreses of immune complexes and western blot analysis with anti phospho-tyrosine and anti-VEGFR2 antibodies (FIG. 3B). […] Protein was dialyzed against PBS and quantified using the BioRad protein assay system (BioRad, Hercules, Calif.). […]

Turning to `NCCc1c[nH]c2ccc(O)cc12` [serotonin], in experiment [1], the “Evans blue leakage response after intradermal injection” value is recorded as “significantly inhibited” and the “leakage of Evans blue dye into stroma after intradermal injection” value is listed as “significant leakage”.

Turning to `S=C=Nc1ccccc1` [MO, Phenyl Isothiocyanate], the “amount of Evans blue leaked in response to MO, lower than in control animals” value in experiment [2] (Collα1(I)r/r mice versus controls, p=0.0002) is ~50%. Moreover, the “Evans blue staining of ears following MO exposure” value was “remained pale with only a modest hint of blue” in experiment [2] (Collα1(I)r/r mice) and “moderately blue” in experiment [2] (littermate control mice). The “total vascular area after MO versus vehicle” value is “unchanged” in experiment [3] (Collα1(I)r/r mice) and “significant increase in total vascular area” in experiment [3] (control mice, p<0.04). In addition, the “vasodilation of macrovasculature (vessel diameter) after MO” value in experiment [3] (Collα1(I)r/r mice) is recorded as “not observed”; in experiment [3] (control mice) it was “increased vasodilation of macrovasculature”.

B1: VEGFA164: VEGF164 (Chemicon), agent known to induce vascular leakage via VEGFR2 (protein)
chain: APTTEGEQKSHEVIKFMDVYQRSYCRPIETLVDIFQEYPDEIEYIFKPSCVPLMRCAGCCNDEALECVPTSESNITMQIMRIKPHQSQHIGEMSFLQHSRCECRPKKDRTKPENHCEPCSERRKHLFVQDPQTCKCSCKNTDSRCKARQLELNERTCRCDKPRR
On to B1, for which, in experiment [4], the “phosphorylation of VEGFR2 following exposure to VEGF” value is “similarly increased levels of phosphorylation”. In experiment [1], the “Evans blue leakage response after intradermal injection” value is “significantly inhibited” and the “leakage of Evans blue dye into stroma after intradermal injection” value is listed as “significant leakage”.
